pIC50, pKi: −log10 of the molar value.
How the values were obtained:
[1] = target: T1, 5-HT2A receptor (Homo sapiens (Human), UniProt P28223); assay: HTRF IP-One antagonist assay, 5-HT2A; assay type: cell-based; conditions: HEK293 cells stably expressing recombinant human receptor; IP accumulation with 80 nM 5-HT
Method: (§1) HEK293 cells stably expressing 5-HT2 receptors were generated using standard procedures. Cells were dilution cloned and clonal cell lines stably expressing the receptors at low levels were selected for pharmacology studies. In radioligand binding studies using a variety of radiolabeled probes, receptor densities in the 2A, 2B and 2C cell lines were estimated to be 50-70, 150-200, and 10-20 fmol/mg, respectively.
(§2) Inositol phosphate accumulation assays were performed using the HTRF IP-One assay system developed by Cisbio and generally followed the manufacturer's instructions. Briefly, HEK293 cells stably expressing recombinant human receptors were harvested and resuspended in phenol-red free OptiMEM (ThermoFisher), plated into 384-well assay plates (Perkin Elmer, ProxiPlate-Plus® Cat #6008280) at 10,000 cells/well in a volume of 10 μL/well, and incubated overnight at 37° C., 5% CO2. Test compounds were solubilized and serially diluted in DMSO, and then diluted into Assay Buffer (Tris HCl 20 mM, NaCl 150 mM, LiCl 40 mM, pargyline 25 μM, pH 8) containing 80 nM 5-HT. Test compounds were added to the cells (4 μL/well addition, maximal final assay concentration typically 10 μM) and plates, incubated for 2 hrs at 37° C./5% CO2 and then removed from the incubator and allowed to cool to room temperature for 30 minutes prior to addition of IP-One detection reagents. IP-One detection reagents (6 μL/well) were added and plates incubated for 1 hr at room temperature before reading on an HTRF compatible reader such as a Perkin Elmer EnVision® or BMG PheraStar®. Dose-response experiments utilized 10-point curves, typically starting at 10 μM, with 5-fold serial dilutions. Experiments were performed with triplicate data points and independent replicate experiments were performed to ensure data consistency.

[2] = target: 5-HT2C receptor (Homo sapiens (Human), UniProt P28335); assay: HTRF IP-One antagonist assay, 5-HT2C; assay type: cell-based; conditions: HEK293 cells stably expressing recombinant human receptor; IP accumulation with 80 nM 5-HT
Method: as §1, §2

[3] = target: T1, 5-HT2A receptor; assay: Radioligand binding assay ([3H]5-HT competition), 5-HT2A; conditions: [3H]5-HT radioligand, membranes of HEK293 cells expressing recombinant 5-HT2A; Ki from IC50 by Cheng-Prusoff; read-out: 5-HT2A serotonin binding Ki value
[4] = target: 5-HT2B receptor (Homo sapiens (Human), UniProt P41595); assay: HTRF IP-One antagonist assay, 5-HT2B; assay type: cell-based; conditions: HEK293 cells stably expressing recombinant human receptor; IP accumulation with 80 nM 5-HT
Method: as §1, §2

T1 sequence (P28223 whole entry): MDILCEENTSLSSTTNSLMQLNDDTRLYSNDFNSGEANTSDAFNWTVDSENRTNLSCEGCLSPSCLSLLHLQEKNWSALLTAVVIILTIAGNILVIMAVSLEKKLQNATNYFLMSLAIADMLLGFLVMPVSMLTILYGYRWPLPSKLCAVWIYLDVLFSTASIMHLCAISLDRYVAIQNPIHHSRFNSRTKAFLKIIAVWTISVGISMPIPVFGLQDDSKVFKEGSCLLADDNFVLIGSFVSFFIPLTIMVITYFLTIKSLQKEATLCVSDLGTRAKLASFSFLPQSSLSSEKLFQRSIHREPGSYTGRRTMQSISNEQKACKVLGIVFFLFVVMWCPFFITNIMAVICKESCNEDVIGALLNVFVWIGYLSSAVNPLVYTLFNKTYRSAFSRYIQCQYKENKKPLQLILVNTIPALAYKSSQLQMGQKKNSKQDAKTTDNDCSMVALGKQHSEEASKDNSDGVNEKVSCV
5-HT2B receptor, sequence (P41595 whole entry): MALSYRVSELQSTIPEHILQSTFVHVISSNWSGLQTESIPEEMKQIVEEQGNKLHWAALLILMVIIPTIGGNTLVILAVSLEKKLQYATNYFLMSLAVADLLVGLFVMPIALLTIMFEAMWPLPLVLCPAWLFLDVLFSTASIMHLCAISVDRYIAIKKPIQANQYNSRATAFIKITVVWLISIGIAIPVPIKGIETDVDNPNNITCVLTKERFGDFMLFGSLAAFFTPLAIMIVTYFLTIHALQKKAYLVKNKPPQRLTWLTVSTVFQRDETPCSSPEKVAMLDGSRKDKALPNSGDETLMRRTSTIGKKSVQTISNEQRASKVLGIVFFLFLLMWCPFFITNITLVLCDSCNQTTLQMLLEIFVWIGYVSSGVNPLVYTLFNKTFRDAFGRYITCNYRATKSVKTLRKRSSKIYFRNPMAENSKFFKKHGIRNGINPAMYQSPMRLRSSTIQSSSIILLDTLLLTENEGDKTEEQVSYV
5-HT2C receptor, sequence (P28335 33-458): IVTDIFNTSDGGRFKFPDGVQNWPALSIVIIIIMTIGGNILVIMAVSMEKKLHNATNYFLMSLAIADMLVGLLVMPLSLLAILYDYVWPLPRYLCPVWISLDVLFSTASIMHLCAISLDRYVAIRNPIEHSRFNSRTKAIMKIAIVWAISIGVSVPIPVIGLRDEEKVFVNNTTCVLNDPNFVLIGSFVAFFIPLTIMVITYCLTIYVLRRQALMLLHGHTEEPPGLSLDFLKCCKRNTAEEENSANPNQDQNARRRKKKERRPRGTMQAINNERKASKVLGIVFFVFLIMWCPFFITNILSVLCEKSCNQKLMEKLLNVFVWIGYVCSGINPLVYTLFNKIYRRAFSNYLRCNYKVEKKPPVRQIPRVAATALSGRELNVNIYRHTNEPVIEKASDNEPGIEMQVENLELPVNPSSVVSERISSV

Row | Compound | pIC50 [1] | pIC50 [2] | pKi [3] | pIC50 [4]
1 | Cc1noc(C)c1-c1cc(NC(=O)C2CC2)ccc1OC[C@H]1CCCCN1 [Compound 169, N-[3-(3,5-dimethylisoxazol-4-yl)-4-[[(2R)-2-piperidyl]methoxy]phenyl]cyclopropanecarboxamide] | 7.89 | ≤ 4.00 | 8.67 | ≤ 4.00
2 | Cc1noc(C)c1-c1cc(NC(=O)C2CC2)ccc1OC1CNC1 [Compound 172, N-(4-(azetidin-3-yloxy)-3-(3,5-dimethylisoxazol-4-yl)phenyl)cyclopropanecarboxamide] | 6.96 | – | 8.19 | ≤ 4.00
3 | Cc1nscc1C(=O)Nc1ccc(OC[C@H]2CCCCN2)c(-c2c(C)noc2C)c1 [Compound 187, (R)—N-(3-(3,5-dimethylisoxazol-4-yl)-4-(piperidin-2-ylmethoxy)phenyl)-3-methylisothiazole-4-carboxamide] | 7.44 | ≤ 4.00 | 8.40 | ≤ 4.00
4 | Cc1noc(C)c1-c1cc(NC(=O)[C@@H]2C[C@@H]2F)ccc1OC[C@H]1CCCCN1 [Compound 192, (1S,2S)—N-(3-(3,5-dimethylisoxazol-4-yl)-4-(((R)-piperidin-2-yl)methoxy)phenyl)-2-fluorocyclopropane-1-carboxamide] | 7.51 | – | 8.31 | ≤ 4.00
5 | Cc1nc(C(=O)Nc2ccc(OC[C@H]3CCCCN3)c(-c3c(C)noc3C)c2)c(C)o1 [Compound 216, (R)—N-(3-(3,5-dimethylisoxazol-4-yl)-4-(piperidin-2-ylmethoxy)phenyl)-2,5-dimethyloxazole-4-carboxamide] | – | – | 6.53 | –
6 | Cc1noc(C)c1-c1cc(NC(=O)C2(F)CC2)ccc1OC[C@H]1CCCCN1 [Compound 217, (R)—N-(3-(3,5-dimethylisoxazol-4-yl)-4-(piperidin-2-ylmethoxy)phenyl)-1-fluorocyclopropane-1-carboxamide] | 8.28 | – | 8.92 | ≤ 4.00
7 | COc1ccc(CC(=O)Nc2ccc(OC[C@H]3CCCCN3)c(-c3c(C)noc3C)c2)cc1 [Compound 224, (R)—N-(3-(3,5-dimethylisoxazol-4-yl)-4-(piperidin-2-ylmethoxy)phenyl)-2-(4-methoxyphenyl)acetamide] | – | – | 8.82 | –
8 | Cc1ncsc1CC(=O)Nc1ccc(OC[C@H]2CCCCN2)c(-c2c(C)noc2C)c1 [Compound 225, (R)—N-(3-(3,5-dimethylisoxazol-4-yl)-4-(piperidin-2-ylmethoxy)phenyl)-2-(4-methylthiazol-5-yl)acetamide] | 7.71 | – | 8.50 | ≤ 4.00
9 | Cc1noc(C)c1-c1cc(NC(=O)Cc2ccc(F)cn2)ccc1OC[C@H]1CCCCN1 [Compound 227, (R)—N-(3-(3,5-dimethylisoxazol-4-yl)-4-(piperidin-2-ylmethoxy)phenyl)-2-(5-fluoropyridin-2-yl)acetamide] | – | – | 7.04 | –
10 | COC1(CC(=O)Nc2ccc(OC[C@H]3CCCCN3)c(-c3c(C)noc3C)c2)CC1 [Compound 228, (R)—N-(3-(3,5-dimethylisoxazol-4-yl)-4-(piperidin-2-ylmethoxy)phenyl)-2-(1-methoxycyclopropyl)acetamide] | – | – | 7.18 | –
11 | Cc1nc(C(C)C)sc1C(=O)Nc1ccc(OC[C@H]2CCCCN2)c(-c2c(C)noc2C)c1 [Compound 231, (R)—N-(3-(3,5-dimethylisoxazol-4-yl)-4-(piperidin-2-ylmethoxy)phenyl)-2-isopropyl-4-methylthiazole-5-carboxamide] | – | – | 7.77 | –
12 | Cc1noc(C)c1-c1cc(NC(=O)C2(F)CC2)ccc1O[C@@H]1CCCNC1 [Compound 235, (R)—N-(3-(3,5-dimethylisoxazol-4-yl)-4-(piperidin-3-yloxy)phenyl)-1-fluorocyclopropane-1-carboxamide] | – | – | 7.34 | –
13 | Cc1noc(C)c1-c1cc(N(C)C(=O)C2CC2)ccc1OC[C@H]1CCCCN1 [Compound 236, N-[3-(3,5-dimethylisoxazol-4-yl)-4-[[(2R)-2-piperidyl]methoxy]phenyl]-N-methyl-cyclopropanecarboxamide] | – | – | 4.19 | –
14 | COCCNCCOc1ccc(NC(=O)C2(F)CC2)cc1-c1c(C)noc1C [Compound 237, N-[3-(3,5-dimethylisoxazol-4-yl)-4-[2-(2-methoxyethylamino)ethoxy]phenyl]-1-fluoro-cyclopropanecarboxamide] | – | – | 8.94 | –
15 | Cc1noc(C)c1-c1cc(NC(=O)C2(F)CC2)ccc1O[C@H]1CCNC1 [Compound 239, (S)—N-(3-(3,5-dimethylisoxazol-4-yl)-4-(pyrrolidin-3-yloxy)phenyl)-1-fluorocyclopropane-1-carboxamide] | – | – | 7.23 | –
16 | N-(4-(2-(azetidin-1-yl)ethoxy)-3-(3,5-dimethylisoxazol-4-yl)phenyl)-2-(5-fluoropyridin-2-yl)acetamide [Compound 129] | – | – | 6.74 | –

The next lines start with the values.

Row | pIC50 [1] | pIC50 [2] | pKi [3] | pIC50 [4] | Compound
17 | 8.05 | ≤ 4.00 | 8.58 | ≤ 4.00 | Cc1noc(C)c1-c1cc(NC(=O)C2(F)CC2)ccc1OCCN1CCCC1 [Compound 113, N-[3-(3,5-dimethylisoxazol-4-yl)-4-(2-pyrrolidin-1-ylethoxy)phenyl]-1-fluoro-cyclopropanecarboxamide]
18 | 8.06 | ≤ 4.00 | 8.59 | ≤ 4.00 | Cc1noc(C)c1-c1cc(NC(=O)c2c(F)cnn2C)ccc1OCCN1CCCC1 [Compound 114, N-(3-(3,5-dimethylisoxazol-4-yl)-4-(2-(pyrrolidin-1-yl)ethoxy)phenyl)-4-fluoro-1-methyl-1H-pyrazole-5-carboxamide]
19 | 7.69 | ≤ 4.00 | 7.99 | ≤ 4.00 | Cc1noc(C)c1-c1cc(NC(=O)C2(F)CC2)ccc1OCCN1CCC1 [Compound 117, N-[4-[2-(azetidin-1-yl)ethoxy]-3-(3,5-dimethylisoxazol-4-yl)phenyl]-1-fluoro-cyclopropanecarboxamide]
20 | 7.89 | ≤ 4.00 | 8.02 | ≤ 4.00 | Cc1ncsc1C(=O)Nc1ccc(OCCN2CCC2)c(-c2c(C)noc2C)c1 [Compound 119, N-(4-(2-(azetidin-1-yl)ethoxy)-3-(3,5-dimethylisoxazol-4-yl)phenyl)-4-methylthiazole-5-carboxamide]
21 | 7.53 | – | 8.33 | – | Cc1noc(C)c1-c1cc(NC(=O)c2ccc(F)cc2)ccc1OCCN1CCC1 [Compound 121, N-(4-(2-(azetidin-1-yl)ethoxy)-3-(3,5-dimethylisoxazol-4-yl)phenyl)-4-fluorobenzamide]
22 | 8.05 | – | 8.57 | – | COc1cccc(C(=O)Nc2ccc(OCCN3CCC3)c(-c3c(C)noc3C)c2)c1 [Compound 122, N-(4-(2-(azetidin-1-yl)ethoxy)-3-(3,5-dimethylisoxazol-4-yl)phenyl)-3-methoxybenzamide]
23 | 7.42 | – | 8.35 | ≤ 4.00 | Cc1noc(C)c1-c1cc(NC(=O)Cc2cccc(F)c2)ccc1OCCN1CCC1 [Compound 125, N-(4-(2-(azetidin-1-yl)ethoxy)-3-(3,5-dimethylisoxazol-4-yl)phenyl)-2-(3-fluorophenyl)acetamide]
24 | 7.30 | ≤ 4.00 | 8.02 | ≤ 4.00 | Cc1noc(C)c1-c1cc(NC(=O)C2CC2)ccc1OCCN1CCC2(CCC(=O)O2)CC1 [Compound 141, N-(3-(3,5-dimethylisoxazol-4-yl)-4-(2-(2-oxo-1-oxa-8-azaspiro[4.5]decan-8-yl)ethoxy)phenyl)cyclopropanecarboxamide]
25 | 7.07 | ≤ 4.00 | 7.83 | ≤ 4.00 | CO[C@H]1CCN(CCOc2ccc(NC(=O)C3CC3)cc2-c2c(C)noc2C)C1 [Compound 144, (S)—N-(3-(3,5-dimethylisoxazol-4-yl)-4-(2-(3-methoxypyrrolidin-1-yl)ethoxy)phenyl)cyclopropanecarboxamide]
26 | 7.80 | ≤ 4.00 | 8.29 | ≤ 4.00 | Cc1noc(C)c1-c1cc(NC(=O)C2CC2)ccc1OCCN1CCC(O)CC1 [Compound 146, N-(3-(3,5-dimethylisoxazol-4-yl)-4-(2-(4-hydroxypiperidin-1-yl)ethoxy)phenyl)cyclopropanecarboxamide]
27 | 8.21 | – | 8.21 | ≤ 4.00 | Cc1noc(C)c1-c1cc(NC(=O)c2c(F)cnn2C)ccc1OC[C@H]1CCCCN1 [Compound 230, (R)—N-(3-(3,5-dimethylisoxazol-4-yl)-4-(piperidin-2-ylmethoxy)phenyl)-4-fluoro-1-methyl-1H-pyrazole-5-carboxamide]

From patent US20240376090A1, “ISOXAZOLE DERIVATIVES AS MODULATORS OF THE 5-HT2A SEROTONIN RECEPTOR USEFUL FOR THE TREATMENT OF DISORDERED RELATED THERETO” (Arena Pharmaceuticals, Inc., priority 2020, published 2024)
